US4963538A, “5-oxygenated HMG-CoA reductase inhibitors” (Merck & Co., Inc., priority 1989, dated 1990)

Target: T1, HMG-CoA reductase (Rattus norvegicus, UniProt P51639)
T1 sequence (P51639 1-887): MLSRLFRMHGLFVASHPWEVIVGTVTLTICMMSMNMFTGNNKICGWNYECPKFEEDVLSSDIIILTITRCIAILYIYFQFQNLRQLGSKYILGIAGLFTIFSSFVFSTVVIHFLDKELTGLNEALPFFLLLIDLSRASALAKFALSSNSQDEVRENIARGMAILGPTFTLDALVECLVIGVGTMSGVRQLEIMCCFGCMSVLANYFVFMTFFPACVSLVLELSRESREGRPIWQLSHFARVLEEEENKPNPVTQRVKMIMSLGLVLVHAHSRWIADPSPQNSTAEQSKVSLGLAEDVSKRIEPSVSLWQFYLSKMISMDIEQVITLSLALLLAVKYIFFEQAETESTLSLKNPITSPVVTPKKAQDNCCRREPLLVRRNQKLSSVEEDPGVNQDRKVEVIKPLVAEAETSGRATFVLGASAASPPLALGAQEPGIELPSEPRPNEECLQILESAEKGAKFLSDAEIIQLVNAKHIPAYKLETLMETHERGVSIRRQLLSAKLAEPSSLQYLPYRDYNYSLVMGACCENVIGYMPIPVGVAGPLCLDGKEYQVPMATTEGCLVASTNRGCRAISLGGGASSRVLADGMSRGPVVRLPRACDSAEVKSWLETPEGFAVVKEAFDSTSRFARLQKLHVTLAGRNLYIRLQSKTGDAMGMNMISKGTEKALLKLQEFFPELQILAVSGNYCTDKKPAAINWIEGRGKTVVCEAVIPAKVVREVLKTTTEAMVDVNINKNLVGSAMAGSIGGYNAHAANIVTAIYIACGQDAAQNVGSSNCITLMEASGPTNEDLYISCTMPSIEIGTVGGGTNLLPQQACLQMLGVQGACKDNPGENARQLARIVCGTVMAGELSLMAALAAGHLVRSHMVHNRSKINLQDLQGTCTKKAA
Assay: intrinsic HMG-CoA reductase inhibition, in vitro protocol of J. Med. Chem., 28, p. 347-358 (1985)
Assay type: biochemical
Conditions: compactin (mevastatin) assigned 100; IC50 of test compound compared with that of compactin determined simultaneously
Experimental: The intrinsic HMG-CoA reductase inhibition activity of the claimed compounds is measured in the in vitro protocol published in J. Med. Chem., 28, p. 347-358 (1985).
For estimation of relative inhibitory potencies, compactin (i.e., mevastatin) was assigned a value of 100 and the IC50 value of the test compound was compared with that of compactin determined simultaneously in the published in vitro protocol.

Point of comparison: CCC(C)(C)C(=O)O[C@H]1C[C@@H](C)[C@@H](OC(=O)N(Cc2ccccc2)Cc2ccccc2)[C@@H]2CC[C@H](C)[C@H](CC[C@@H]3C[C@@H](O)CC(=O)O3)[C@H]21 [6(R)-[2-[8(S)-(2,2-dimethylbutyryloxyl)-2(S)-methyl-5(R)-dibenzylaminocarbonyloxy-6(R)-methyl-1,2,3,4,4a(R)-,5,6,7,8,8a(R)-decahydronaphthyl-1(S)]ethyl]-4(R)-hydroxy-3,4,5,6-tetrahydro-2H-pyran-2-one], “Relative Potency” value 94. Against it:
- CCC(C)(C)C(=O)O[C@H]1C[C@@H](C)[C@@H](OC(=O)NCc2ccccc2)[C@@H]2CC[C@H](C)[C@H](CC[C@@H]3C[C@@H](O)CC(=O)O3)[C@H]21 [6(R)-[2-[8(S) (2,2-dimethylbutyryloxy)-2(S)methyl 5(R)-benzylaminocarbonyloxy-6(R)-methyl-1,2,3,4,4a(R)-,5,6,7,8,8a(R)-decahydronaphthyl-1(S)]ethyl]-4-(R)-hydroxy-3,4,5,6-tetrahydro-2H-pyran-2-one] — higher, 360
- CCC(C)(C)C(=O)O[C@H]1C[C@@H](C)[C@@H](OCCc2ccccc2)[C@@H]2CC[C@H](C)[C@H](CC[C@@H]3C[C@@H](O)CC(=O)O3)[C@H]21 [6(R)-[2-[8(S)-(2,2-dimethylbutyryloxy)-2(S)-methyl-5(R)-(1-phenylethyl-2-oxy)-6(R)-methyl-1,2,3,4,4a(R)-,5,6,7,8, 8a(R)-decahydronaphthyl-1(S)]ethyl]-4(R)-hydroxy-3,4,5,6-tetrahydro-2H-pyran-2-one] — higher, 300
- CCC(C)(C)C(=O)O[C@H]1C[C@@H](C)[C@@H](OP(=O)(c2ccccc2)c2ccccc2)[C@@H]2CC[C@H](C)[C@H](CC[C@@H]3C[C@@H](O)CC(=O)O3)[C@H]21 [6(R)-[2-[8(S)-(2,2-dimethylbutyryloxy)-2(S)-methyl-5(R)-diphenylphosphinyloxy-6(R)-methyl-1,2,3,4,4a(R),5,6,7,8,8a(R)-decahydronaphthyl-1(S)]ethyl]-4(R)-hydroxy-3,4,5,6-tetrahydro-2H-pyran-2-one] — higher, 300
- CCC(C)(C)C(=O)O[C@H]1C[C@@H](C)[C@@H](O)[C@@H]2CC[C@H](C)[C@H](CC[C@@H]3C[C@@H](O)CC(=O)O3)[C@H]21 [6(R)-[2-[8(S)-(2,2-dimethylbutyryloxy)-2(S)-methyl-5(R)-hydroxy-6(R)-methyl-1,2,3,4,4a(R),6,7,8,8a(R)-decahydronapththyl-1(S)]ethyl]-4(R)-hydroxy-3,4,5,6-tetrahydro-2H-pyran-2-one] — lower, 50
- CCC(C)(C)C(=O)O[C@H]1C[C@@H](C)[C@@H](O)[C@@H]2C=C[C@H](C)[C@H](CC[C@@H]3C[C@@H](O)CC(=O)O3)[C@H]21 [6(R)-[2-[8(S)-(2,2-dimethylbutyryloxy)-2(S)-methyl-5(R)-hydroxy-6(R)-methyl-1,2,4a(R),5,6,7,8,8a(R)-octahydronaphthyl-1(S)]ethyl]-4(R)-hydroxy-3,4,5,6-tetrahydro-2H-pyran-2-one] — higher, 100
- CCC(C)(C)C(=O)O[C@H]1C[C@H](C)[C@@H](O)[C@@H]2CC[C@H](C)[C@H](CC[C@@H]3C[C@@H](O)CC(=O)O3)[C@H]21 [6(R)-[2-[8(S)-(2,2-dimethylbutyryloxy)-2(S)-methyl-5(R)-hydroxy-6(S)-methyl-1,2,3,4,4a(R)-,6,7,8,8a(R)-decahydronaphthyl-1(S)]ethyl]-4(R)-hydroxy-3,4,5,6-tetrahydro-2H-pyran-2-one] — higher, 99.6
- CCC(C)(C)C(=O)O[C@H]1C[C@H](C)[C@H](O)[C@@H]2CC[C@H](C)[C@H](CC[C@@H]3C[C@@H](O)CC(=O)O3)[C@H]21 [6(R)-[2-[8(S)-(2,2-dimethylbutyryloxy)-2(S)-methyl-5(S)-hydroxy-6(S)-methyl-1,2,3,4,4a-(R)-,6,7,8,8a(R)-decahydronaphthyl-1(S)]ethyl]-4(R)-hydroxy-3,4,5,6-tetrahydro-2H-pyran-2-one] — lower, 11.1
- CCC(C)(C)C(=O)O[C@H]1C[C@@H](C)C(=O)[C@@H]2CC[C@H](C)[C@H](CC[C@@H]3C[C@@H](O)CC(=O)O3)[C@@H]12 [6(R)-[2-[8(S)-(2,2-dimethylbutyryloxy)-2(S)-methyl-5-oxo-6(R)-methyl-1,2,3,4,4a(R)-,6,7,8,8a(R)-nonanydronaphthyl-1(S)]ethyl]-4(R)-hydroxy-3,4,5,6-tetrahydro-2H-pyran-2-one] — higher, 125
